By IC50 is commonly meant the midpoint of a concentration-inhibition curve.

The source of these data is US5169836A, “Inhibitors of platelet binding” (Trustees of the University of Penna., priority 1988, dated 1992).

Where no end group is shown, it is not given here.

Test [1] deals with T1, glycoprotein IIb-IIIa on activated platelets (Homo sapiens, UniProt P05106+P08514).
T1 construct: Venous blood from normal donors was drawn; endogenous in cells
T1 sequence (P08514 32-887 limits assumed): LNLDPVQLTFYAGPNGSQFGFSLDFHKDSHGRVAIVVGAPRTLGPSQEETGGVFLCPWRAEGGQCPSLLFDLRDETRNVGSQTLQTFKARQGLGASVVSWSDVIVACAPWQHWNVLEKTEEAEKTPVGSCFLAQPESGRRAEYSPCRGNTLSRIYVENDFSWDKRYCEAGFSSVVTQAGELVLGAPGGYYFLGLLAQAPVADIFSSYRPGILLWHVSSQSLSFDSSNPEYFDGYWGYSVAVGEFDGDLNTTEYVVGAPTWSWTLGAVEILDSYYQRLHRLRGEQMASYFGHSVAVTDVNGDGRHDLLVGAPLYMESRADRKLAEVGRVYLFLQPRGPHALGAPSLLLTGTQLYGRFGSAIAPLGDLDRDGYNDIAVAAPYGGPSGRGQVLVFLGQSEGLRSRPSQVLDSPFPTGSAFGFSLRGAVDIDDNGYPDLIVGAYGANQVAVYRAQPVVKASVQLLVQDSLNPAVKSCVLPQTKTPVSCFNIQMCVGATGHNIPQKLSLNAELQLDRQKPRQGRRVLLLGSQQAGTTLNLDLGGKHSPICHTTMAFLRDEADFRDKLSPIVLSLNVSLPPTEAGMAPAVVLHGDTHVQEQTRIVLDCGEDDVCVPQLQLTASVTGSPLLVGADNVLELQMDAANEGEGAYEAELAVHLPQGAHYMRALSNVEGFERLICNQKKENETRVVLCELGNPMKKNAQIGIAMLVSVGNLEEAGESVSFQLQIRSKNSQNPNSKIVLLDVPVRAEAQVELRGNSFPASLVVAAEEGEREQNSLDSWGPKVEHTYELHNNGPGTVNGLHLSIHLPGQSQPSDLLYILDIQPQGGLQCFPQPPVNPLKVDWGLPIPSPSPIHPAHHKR
T1 sequence (P05106 27-788): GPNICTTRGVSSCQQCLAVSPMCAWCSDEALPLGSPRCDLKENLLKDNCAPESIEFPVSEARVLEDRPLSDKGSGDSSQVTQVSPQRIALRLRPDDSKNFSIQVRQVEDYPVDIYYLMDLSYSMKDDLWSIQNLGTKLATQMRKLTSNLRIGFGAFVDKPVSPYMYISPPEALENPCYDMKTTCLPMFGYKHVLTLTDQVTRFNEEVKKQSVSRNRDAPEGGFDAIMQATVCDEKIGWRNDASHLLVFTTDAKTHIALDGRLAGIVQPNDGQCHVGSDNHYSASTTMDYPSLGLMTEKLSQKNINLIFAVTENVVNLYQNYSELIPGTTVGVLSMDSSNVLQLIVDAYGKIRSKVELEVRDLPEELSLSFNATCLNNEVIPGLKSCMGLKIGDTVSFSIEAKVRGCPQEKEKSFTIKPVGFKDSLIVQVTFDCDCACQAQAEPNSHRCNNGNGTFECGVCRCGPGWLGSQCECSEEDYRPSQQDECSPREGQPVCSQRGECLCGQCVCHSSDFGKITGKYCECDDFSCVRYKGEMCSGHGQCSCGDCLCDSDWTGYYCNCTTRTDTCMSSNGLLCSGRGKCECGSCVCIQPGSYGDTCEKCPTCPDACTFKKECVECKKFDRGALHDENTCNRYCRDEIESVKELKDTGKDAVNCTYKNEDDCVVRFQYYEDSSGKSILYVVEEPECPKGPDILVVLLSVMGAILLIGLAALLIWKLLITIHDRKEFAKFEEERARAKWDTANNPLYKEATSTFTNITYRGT
Put plainly: Binding of FITC-PAC1 to activated gel-filtered platelets, flow cytometry. Particulars: for effect on FITC-PAC1 binding: platelets activated with ADP and epinephrine (10 μM each), peptide 0-100 μM. From the text: The binding of PAC1 monoclonal antibody and fibrinogen to gel-filtered human blood platelets was examined by fluorescence-activated flow cytometry using the procedures of Shattil et al., Blood, 70, 307-315 (1987). Venous blood from normal donors was drawn into 1/7 vol of NIH formula A acid-citrate-dextrose solution, platelet-rich plasma was obtained, and the platelets were gel-filtered into an isotonic HEPES-containing buffer at pH 7.4, as described in Shattil et al., Blood, 68, 1224-1231 (1986). To examine the effect of synthetic peptides on PAC1 binding to activated platelets, 5×10^7 platelets were incubated for 15 min at room temperature in a final vol of 50 μl in the presence of varying concentrations of (0-100 μM) of peptide, 40 μg/ml fluorescein-labeled PAC1 (FITC-PAC1 ), 10 μM ADP and 10 μM epinephrine. Then, 500 μl of the isotonic buffer was added and antibody binding was quantitated using a flow cytometer, as described in Shattil et al., Blood, 70, 307-315 (1987). Fibrinogen binding to platelets was measured using the same incubation system, except that 50 μg/ml of purified human fibrinogen as described in Bennett et al., J. Clin. Invest., 64, 1393-1400 (1979) was added and the monoclonal antibody, FITC-9F9, was used instead of FITC-PAC1. […] Abrams et al., Blood, 70, 335a (1987). […] Shattil et al., Blood 70, 307-315 (1987). The amount of platelet-bound FITC-PAC1 or FITC-9F9 was determined by analyzing 10,000 platelets for the extent of fluorescence at 488 nm, and binding expressed as the mean fluorescence intensity in arbitrary fluorescence units.

For test [2], the target named is T2, blood platelet membrane fibrinogen receptor, glycoprotein IIb-IIIa (Homo sapiens, UniProt P05106+P08514).
T2 construct: Venous blood from normal donors was drawn; endogenous in cells
T2 sequence (P08514 32-887 limits assumed): T1 sequence (P08514 32-887 limits assumed)
T2 sequence (P05106 27-788): T1 sequence (P05106 27-788)
Put plainly: Fibrinogen binding to activated gel-filtered platelets, measured with FITC-9F9 by flow cytometry. Particulars: 50 μg/ml fibrinogen. From the text: The binding of PAC1 monoclonal antibody and fibrinogen to gel-filtered human blood platelets was examined by fluorescence-activated flow cytometry using the procedures of Shattil et al., Blood, 70, 307-315 (1987). Venous blood from normal donors was drawn into 1/7 vol of NIH formula A acid-citrate-dextrose solution, platelet-rich plasma was obtained, and the platelets were gel-filtered into an isotonic HEPES-containing buffer at pH 7.4, as described in Shattil et al., Blood, 68, 1224-1231 (1986). […] Then, 500 μl of the isotonic buffer was added and antibody binding was quantitated using a flow cytometer, as described in Shattil et al., Blood, 70, 307-315 (1987). Fibrinogen binding to platelets was measured using the same incubation system, except that 50 μg/ml of purified human fibrinogen as described in Bennett et al., J. Clin. Invest., 64, 1393-1400 (1979) was added and the monoclonal antibody, FITC-9F9, was used instead of FITC-PAC1. […] Previous studies have established that the amount of FITC-labeled antibody bound to platelets determined by flow cytometry is related in a linear fashion to the amount of antibody bound determined in a conventional radioligand binding assay. […]
The ability of Arg-Tyr-Asp-21mer to inhibit fibrinogen binding to activated platelets was also tested. Fibrinogen binding was assessed by flow cytometry using a FITC-labeled anti-fibrinogen monoclonal antibody, 9F9. […]
In general terms: A flow cytometer gives signals particle by particle.

For a further test, the target named is T3, platelet glycoprotein Ib (Homo sapiens, UniProt P07359).
T3 construct: platelet glycoprotein Ib on resting platelets; endogenous in cells
Put plainly: Binding of FITC-AP1 to resting platelets, flow cytometry. How it is done: (§1) Gel-filtered platelets were incubated in the presence of Arg-Tyr-Asp-21mer and various FITC-labeled anti-platelet monoclonal antibodies. Monoclonal antibody binding was determined by flow cytometry. In the case of antibody AP1 (specific for platelet glycoprotein Ib) (unfilled circles), the platelets were not activated. In the case of antibodies PAC1 (specific for activated glycoproteins IIb-IIIa) (filled circles), BIB5 (specific for glycoprotein IIb) (filled squares) and S12 (specific for GMP-140) (unfilled triangles), the platelets were activated with ADP and epinephrine (10 μM each). The data shown are from a single experiment representative of two runs performed as described.
(§2) The binding of PAC1 monoclonal antibody and fibrinogen to gel-filtered human blood platelets was examined by fluorescence-activated flow cytometry using the procedures of Shattil et al., Blood, 70, 307-315 (1987). […] Then, 500 μl of the isotonic buffer was added and antibody binding was quantitated using a flow cytometer, as described in Shattil et al., Blood, 70, 307-315 (1987). Fibrinogen binding to platelets was measured using the same incubation system, except that 50 μg/ml of purified human fibrinogen as described in Bennett et al., J. Clin. Invest., 64, 1393-1400 (1979) was added and the monoclonal antibody, FITC-9F9, was used instead of FITC-PAC1. […]

The target in a further test is T4, glycoprotein IIb (Homo sapiens, UniProt P08514).
T4 construct: endogenous in cells
T4 sequence (P08514 32-887 limits assumed): T1 sequence (P08514 32-887 limits assumed)
Nature of the test: Binding of FITC-B1B5 to activated platelets, flow cytometry. To be noted: activated platelets (ADP and epinephrine, 10 μM each). How it is done:
as §1, §2

The target of another test is T5, GMP-140 (Homo sapiens, UniProt P16109).
T5 construct: endogenous in cells
T5 sequence (P16109 42-830): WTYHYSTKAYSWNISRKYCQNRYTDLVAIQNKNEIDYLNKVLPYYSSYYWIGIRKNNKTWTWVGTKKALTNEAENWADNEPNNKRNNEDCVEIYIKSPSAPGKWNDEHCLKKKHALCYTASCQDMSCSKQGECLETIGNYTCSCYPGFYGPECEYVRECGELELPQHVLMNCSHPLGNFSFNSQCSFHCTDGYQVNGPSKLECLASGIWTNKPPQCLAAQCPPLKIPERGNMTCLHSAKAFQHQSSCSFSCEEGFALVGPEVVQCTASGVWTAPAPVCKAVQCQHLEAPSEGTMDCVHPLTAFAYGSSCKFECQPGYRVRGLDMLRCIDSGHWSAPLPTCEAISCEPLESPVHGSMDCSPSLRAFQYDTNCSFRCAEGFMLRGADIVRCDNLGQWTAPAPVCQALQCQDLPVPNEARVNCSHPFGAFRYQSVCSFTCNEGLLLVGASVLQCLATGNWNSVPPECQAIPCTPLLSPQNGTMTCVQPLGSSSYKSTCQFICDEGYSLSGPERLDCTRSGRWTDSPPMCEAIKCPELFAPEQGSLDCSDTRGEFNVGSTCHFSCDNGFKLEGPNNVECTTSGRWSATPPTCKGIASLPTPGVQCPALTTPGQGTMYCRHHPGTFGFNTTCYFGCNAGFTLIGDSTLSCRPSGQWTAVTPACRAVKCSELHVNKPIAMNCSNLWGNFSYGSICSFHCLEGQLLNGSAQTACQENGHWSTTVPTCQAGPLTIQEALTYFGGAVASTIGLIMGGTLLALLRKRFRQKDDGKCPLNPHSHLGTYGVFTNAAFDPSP
Nature of the test: Binding of FITC-S12 to activated platelets, flow cytometry. Particulars: activated platelets (ADP and epinephrine, 10 μM each). Here is the method: as §1, §2

T3 sequence (P07359 17-652): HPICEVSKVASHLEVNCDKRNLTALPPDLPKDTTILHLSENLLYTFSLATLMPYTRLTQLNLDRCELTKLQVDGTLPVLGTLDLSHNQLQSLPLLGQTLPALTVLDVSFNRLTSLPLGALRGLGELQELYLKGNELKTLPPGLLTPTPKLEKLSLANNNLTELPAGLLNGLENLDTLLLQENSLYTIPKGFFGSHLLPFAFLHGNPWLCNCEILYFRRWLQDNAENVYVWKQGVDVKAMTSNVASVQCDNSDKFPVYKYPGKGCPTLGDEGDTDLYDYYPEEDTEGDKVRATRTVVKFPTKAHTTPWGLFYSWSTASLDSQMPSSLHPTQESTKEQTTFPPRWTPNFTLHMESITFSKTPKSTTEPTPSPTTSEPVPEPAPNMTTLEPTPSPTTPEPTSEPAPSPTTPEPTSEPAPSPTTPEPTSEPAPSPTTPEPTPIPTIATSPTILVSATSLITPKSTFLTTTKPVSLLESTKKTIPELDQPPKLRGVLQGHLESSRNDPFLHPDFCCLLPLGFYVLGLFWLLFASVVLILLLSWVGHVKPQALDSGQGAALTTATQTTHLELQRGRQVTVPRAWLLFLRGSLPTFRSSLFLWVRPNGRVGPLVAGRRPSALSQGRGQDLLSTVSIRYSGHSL
T3 sequence (P13224 26-206 partner): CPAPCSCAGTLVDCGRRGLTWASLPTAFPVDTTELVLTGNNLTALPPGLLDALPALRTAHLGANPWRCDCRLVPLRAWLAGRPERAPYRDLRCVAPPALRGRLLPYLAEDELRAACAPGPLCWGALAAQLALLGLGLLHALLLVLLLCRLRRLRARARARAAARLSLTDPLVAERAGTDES
T3 sequence (P14770 17-177 partner): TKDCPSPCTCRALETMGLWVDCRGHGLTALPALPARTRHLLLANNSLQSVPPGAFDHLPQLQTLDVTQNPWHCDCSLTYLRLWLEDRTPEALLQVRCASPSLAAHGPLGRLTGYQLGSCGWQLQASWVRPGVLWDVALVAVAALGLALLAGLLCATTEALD

Consider “ARRSPSYYRYDGAGPYYAMDY [Arg-Tyr-Asp-21mer]”, for which the Ki is 10.2 ± 4.3 µM in test [1] (Dixon plot analysis, five separate experiments, ±SE, read-out: apparent Ki for inhibition of PAC1 binding) and 5.5 ± 3.5 µM in test [2] (Dixon plot analysis, three experiments, ADP plus epinephrine, read-out: apparent Ki for inhibition of fibrinogen binding). For the same substance, the IC50 in test [1] (platelets activated with 10 μM ADP and 10 μM epinephrine, 40 μg/ml FITC-PAC1, 15 min, room temperature, read-out: IC50 for inhibition of the binding of FITC-PAC1 to platelets) lay in the range of 20 to 30 µM. In addition, the “effect on FITC-PAC1 binding” value in test [1] was “marked effect”. The “effect on the binding of FITC-AP1 to platelet glycoprotein Ib” value on platelet glycoprotein Ib was “no effect”. In addition, on glycoprotein IIb, the “effect on the binding of FITC-B1B5 to glycoprotein IIb” value is listed as “no effect”. The “effect on the binding of FITC-S12 to GMP-140” value at GMP-140 is on record as “no effect”.

As for “NH2 -Tyr-Val-Asp-Gly-Asp-Gln-Cys-(Acm)-Glu-Ser-Asn-Pro-Cys-Leu-Asn-Gly-Gly-Met(O)-Cys-(Acm)-Lys-Asp-Asp-Ile-Asn-Ser-Tyr-Gly-Cys-Phe-COOH [unrelated-28mer, reference compound]”, the “effect on FITC-PAC1 binding” value in test [1] was “no effect”. In test [2] (platelets activated with ADP plus epinephrine), the “effect on 9F9 binding (fibrinogen binding)” value is on record as “no effect”.
